Source: patent EP4678638A1, “NEW E3 UBIQUITIN LIGASE LIGAND, PROTEIN DEGRADATION AGENT AND USE THEREOF” (priority 2023, dated 2024)
pIC50: −log10 of the molar value.

Target: T1, human Cereblon WT GST-tagged protein (Homo sapiens, UniProt Q96SW2)
T1 construct: purchased CISBIO 64BDCRBNPEH
Test: CRBN binding, HTRF (CEREBLON BINDING kit)
Details: HTRF; for inhibition at 0.5 µM / inhibition at 2 µM: Table II-2, CRBN binding screening; for inhibition at 0.5 µM: read-out: Inhibition rate (%) at 0.5µM; for inhibition at 2 µM: read-out: Inhibition rate (%) at 2 µM; for pIC50: Table II-1, CRBN binding
Description: The CEREBLON BINDING kits (specification: 10,000 tests; product number: Catalog # 64BDCRBNPEH; CISBIO company) was used to determine the CRBN binding ability of the compounds to be tested through a HTRF method (homogeneous time-resolved fluorescence). The specific methods are as follows: • 1. […] Then, 2.5 µL of human Cereblon WT GST-tagged protein solution was added to each well. Finally, 5 µL of the thoroughly mixed Thalidomide-Re reagent and GST Eu antibody working solution were added to each of the aforementioned wells. […] The blank control wells were sequentially added with 2.5 µL of diluent #9 (1X) solution, 2.5 µL of binding buffer, and 5 µL of thoroughly mixed Thalidomide-Re reagent and GST Eu antibody working solution. • 4. After sealing and incubating the solutions in the aforementioned wells at room temperature for 3 hours, the […] at emission wavelengths of 620 nm and 665 nm were detected by the HTRF method using a Spark microplate reader (V3.1 SP1).

T1 sequence (Q96SW2 whole entry): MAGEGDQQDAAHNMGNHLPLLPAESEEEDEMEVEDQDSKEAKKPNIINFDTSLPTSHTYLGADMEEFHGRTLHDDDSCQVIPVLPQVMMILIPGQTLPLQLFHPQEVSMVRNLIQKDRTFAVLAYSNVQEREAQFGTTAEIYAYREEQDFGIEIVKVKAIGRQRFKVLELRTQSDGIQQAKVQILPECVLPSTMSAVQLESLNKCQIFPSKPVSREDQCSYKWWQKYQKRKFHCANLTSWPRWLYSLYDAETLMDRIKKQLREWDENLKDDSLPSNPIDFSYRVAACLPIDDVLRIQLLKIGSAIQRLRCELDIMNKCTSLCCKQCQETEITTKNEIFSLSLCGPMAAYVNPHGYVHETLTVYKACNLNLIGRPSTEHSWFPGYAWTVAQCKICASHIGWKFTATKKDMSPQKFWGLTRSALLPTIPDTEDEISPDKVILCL

Row | inhibition at 0.5 µM | inhibition at 2 µM | pIC50 | SMILES
1 | 40 to 53% | 60 to 80% |  | Cc1ccc(C(=O)Nc2ccc(N3CCC(N(C)Cc4ccc(C5CCC(=O)NC5=O)cc4)CC3)c(C(F)(F)F)c2)cc1C#Cc1cnc2cccnn12 (centres unmarked) [GT-04106, N-(4-(4-((4-(2,6-dioxopiperidin-3-yl)benzyl)(methyl)amino)piperidin-1-yl)-3-(trifluoromethyl)phenyl)-3-(imidazo[1,2-b]pyridazin-3-ylethynyl)-4-methylbenzamide]
2 | 30 to 40% | 80 to 100% |  | Cc1ccc(C(=O)Nc2ccc(N3CCC(N(C)Cc4ccc(C5CCC(=O)NC5=O)c(F)c4)CC3)c(C(F)(F)F)c2)cc1C#Cc1cnc2cccnn12 (centres unmarked) [GT-04107, N-(4-(4-((4-(2,6-dioxopiperidin-3-yl)-3-fluorobenzyl)(methyl)amino)piperidin-1-yl)-3-(trifluoromethyl)phenyl)-3-(imidazo[1,2-b]pyridazin-3-ylethynyl)-4-methylbenzamide]
3 | 60 to 80% | 80 to 100% |  | Cn1cc(-c2cc(S(C)(=O)=O)ccc2OCc2ccc(C3CCC(=O)NC3=O)c(F)c2)c2cc[nH]c2c1=O (centres unmarked) [GT-04640, 3-(2-fluoro-4-((2-(6-methyl-7-oxo-6,7-dihydro-1H-pyrrolo[2,3-c]pyridin-4-yl)-4-(methylsulfonyl)phenoxy)methyl)phenyl)piperidine-2,6-dione]
4 | 30 to 40% | 60 to 80% |  | Cn1cc(-c2cc(S(C)(=O)=O)ccc2OCc2ccc(N3CCC(=O)NC3=O)c(F)c2)c2cc[nH]c2c1=O [GT-04643, 1-(2-fluoro-4-((2-(6-methyl-7-oxo-6,7-dihydro-1H-pyrrolo[2,3-c]pyridin-4-yl)-4-(methylsulfonyl)phenoxy)methyl)phenyl)dihydropyrimidine-2,4(1H,3H)-dione]
5 | 20 to 30% | 53 to 60% |  | Cn1cc(-c2cc(S(C)(=O)=O)ccc2OCc2ccc(N3CCC(=O)NC3=O)cc2)c2cc[nH]c2c1=O [GT-04645, 1-(4-((2-(6-methyl-7-oxo-6,7-dihydro-1H-pyrrolo[2,3-c]pyridin-4-yl)-4-(methylsulfonyl)phenoxy)methyl)phenyl)dihydropyrimidine-2,4(1H,3H)-dione]
6 |  |  | 6.00 to 6.30 | O=C1CCN(c2cccc(CN3CCN(C4CCN(c5ccc([C@@H]6c7ccc(O)cc7CC[C@@H]6c6ccccc6)cc5)CC4)CC3)c2)C(=O)N1 [GT-04685, 1-(3-((4-(1-(4-((1R,2S)-6-hydroxy-2-phenyl-1,2,3,4-tetrahydronaphthalen-1-yl)phenyl)piperidin-4-yl)piperazin-1-yl)methyl)phenyl)dihydropyr imidine-2,4(1H,3H)-dione]
7 |  |  | 5.72 to 6.00 | O=C1CCN(c2ccc(CN3CCN(C4CCN(c5ccc([C@@H]6c7ccc(O)cc7CC[C@@H]6c6ccccc6)cc5)CC4)CC3)cc2)C(=O)N1 [GT-04686, 1-(4-((4-(1-(4-((1R,2S)-6-hydroxy-2-phenyl-1,2,3,4-tetrahydronaphthalen-1-yl)phenyl)piperidin-4-yl)piperazin-1-yl)methyl)phenyl)dihydropyr imidine-2,4(1H,3H)-dione]
8 |  |  | 5.72 to 6.00 | O=C1CCN(c2ccc(CN3CCN(C4CCN(c5ccc([C@@H]6c7ccc(O)cc7CC[C@@H]6c6ccccc6)cc5)CC4)CC3)c(F)c2)C(=O)N1 [GT-04687, 1-(3-fluoro-4-((4-(1-(4-((1R,2S)-6-hydroxy-2-phenyl-1,2,3,4-tetrahydronaphthalen-1-yl)phenyl)piperidin-4-yl)piperazin-1-yl)methyl)phenyl)dihydropyr imidine-2,4(1H,3H)-dione]
9 |  |  | 5.72 to 6.00 | O=C1CCN(c2ccc(CN3CCN(C4CCN(c5ccc([C@@H]6c7ccc(O)cc7CC[C@@H]6c6ccccc6)cc5)CC4)CC3)cc2F)C(=O)N1 [GT-04738, 1-(2-fluoro-4-((4-(1-(4-((1R,2S)-6-hydroxy-2-phenyl-1,2,3,4-tetrahydronaphthalen-1-yl)phenyl)piperidin-4-yl)piperazin-1-yl)methyl)phenyl)dihydropyr imidine-2,4(1H,3H)-dione]
10 | 30 to 40% | 60 to 80% |  | O=C1CCN(c2ccc(CCl)nc2)C(=O)N1 [GT-06984, 1-(6-(Chloromethyl)pyridin-3-yl)dihydropyrimidine-2,4(1H,3H)-dione]
11 | 30 to 40% | 60 to 80% |  | CN(c1nccnc1CNc1nc(Nc2ccc(N3CCN(Cc4cc(C5CCC(=O)NC5=O)cnc4F)CC3)cc2)ncc1C(F)(F)F)S(C)(=O)=O (centres unmarked) [GT-07397, N-(3-(((2-((4-(4-((5-(2,6-dioxopiperidin-3-yl)-2-fluoropyridin-3-yl)methyl)piperazin-1-yl)phenyl)amino)-5-(trifluoromethyl)pyrimidin-4-yl)amino)methyl)pyrazin-2-yl)-N-methylmethanesulfonamide]
12 | 10 to 20% | 60 to 80% |  | CN(c1nccnc1CNc1nc(Nc2ccc(N3CCN(Cc4ccc(C5CCC(=O)NC5=O)cc4)CC3)cc2)ncc1C(F)(F)F)S(C)(=O)=O (centres unmarked) [GT-07399, N-(3-(((2-((4-(4-(4-(2,6-dioxopiperidin-3-yl)benzyl)piperazin-1-yl)phenyl)amino)-5-(trifluoromethyl)pyrimidin-4-yl)amino)methyl)pyrazin-2-yl)-N-methylmethanesulfonamide]
13 | 30 to 40% | 60 to 80% |  | CN(c1nccnc1CNc1nc(Nc2ccc(N3CCN(Cc4ccc(N5CCC(=O)NC5=O)cn4)CC3)cc2)ncc1C(F)(F)F)S(C)(=O)=O [GT-07403, N-(3-(((2-((4-(4-((5-(2,4-dioxotetrahydropyrimidin-1(2H)-yl)pyridin-2-yl)methyl)piperazin-1-yl)phenyl)amino)-5-(trifluoromethyl)pyrimidin-4-yl)amino)methyl)pyrazin-2-yl)-N-methylmethanesulfonamide]
14 | 20 to 30% | 80 to 100% |  | CC(=O)c1c(C)c2cnc(Nc3ccc(N4CCN(Cc5cncc(N6CCC(=O)NC6=O)c5)CC4)cn3)nc2n(C2CCCC2)c1=O [GT-07482, 1-(5-((4-(6-((6-acetyl-8-cyclopentyl-5-methyl-7-oxo-7,8-dihydropyrido[2,3-d]pyrimidin-2-yl)amino)pyridin-3-yl)piperazin-1-yl)methyl)pyridin-3-yl)dihydropyrimidine-2,4(1H,3H)-dione]
15 | 53 to 60% | 80 to 100% |  | CC(=O)c1c(C)c2cnc(Nc3ccc(N4CCN(Cc5ccc(C6CCC(=O)NC6=O)cn5)CC4)cn3)nc2n(C2CCCC2)c1=O (centres unmarked) [GT-07483, 3-(6-((4-(6-((6-acetyl-8-cyclopentyl-5-methyl-7-oxo-7,8-dihydropyrido[2,3-d]pyrimidin-2-yl)amino)pyridin-3-yl)piperazin-1-yl)methyl)pyridin-3-yl)piperidine-2,6-dione]
16 | 53 to 60% | 80 to 100% |  | CC(=O)c1c(C)c2cnc(Nc3ccc(N4CCN(Cc5cncc(C6CCC(=O)NC6=O)c5)CC4)cn3)nc2n(C2CCCC2)c1=O (centres unmarked) [GT-07485, 3-(5-((4-(6-((6-acetyl-8-cyclopentyl-5-methyl-7-oxo-7,8-dihydropyrido[2,3-d]pyrimidin-2-yl)amino)pyridin-3-yl)piperazin-1-yl)methyl)pyridin-3-yl)piperidine-2,6-dione]
17 | 10 to 20% | 53 to 60% |  | COc1cc2nn(C3CCN(Cc4ccc(C5CCC(=O)NC5=O)cn4)CC3)cc2cc1NC(=O)c1cccc(C(F)(F)F)n1 (centres unmarked) [GT-07534, N-(2-(1-((5-(2,6-dioxopiperidin-3-yl)pyridin-2-yl)methyl)piperidin-4-yl)-6-methoxy-2H-indazol-5-yl)-6-(trifluoromethyl)picolinamide]
18 | 10 to 20% | 53 to 60% |  | COc1cc2nn(C3CCN(Cc4cncc(C5CCC(=O)NC5=O)c4)CC3)cc2cc1NC(=O)c1cccc(C(F)(F)F)n1 (centres unmarked) [GT-07536, N-(2-(1-((5-(2,6-dioxopiperidin-3-yl)pyridin-3-yl)methyl)piperidin-4-yl)-6-methoxy-2H-indazol-5-yl)-6-(trifluoromethyl)picolinamide]
19 | 30 to 40% | 53 to 60% |  | CC(C)(O)c1cc2nn(C3CCN(Cc4cncc(N5CCC(=O)NC5=O)c4)CC3)cc2cc1NC(=O)c1cccc(C(F)(F)F)n1 [GT-07540, N-(2-(1-((5-(2,4-dioxotetrahydropyrimidin-1(2H)-yl)pyridin-3-yl)methyl)piperidin-4-yl)-6-(2-hydroxypropan-2-yl)-2H-indazol-5-yl)-6-(trifluoromethyl)picolinamide]
20 | 40 to 53% | 60 to 80% |  | CC(C)(O)c1cc2nn(C3CCN(Cc4ccc(C5CCC(=O)NC5=O)cn4)CC3)cc2cc1NC(=O)c1cccc(C(F)(F)F)n1 (centres unmarked) [GT-07541, N-(2-(1-((5-(2,6-dioxopiperidin-3-yl)pyridin-2-yl)methyl)piperidin-4-yl)-6-(2-hydroxypropan-2-yl)-2H-indazol-5-yl)-6-(trifluoromethyl)picolinamide]
21 | 40 to 53% | 80 to 100% |  | COc1cc2nn(C3CCN(Cc4cc(C5CCC(=O)NC5=O)cnc4F)CC3)cc2cc1NC(=O)c1cccc(C(F)(F)F)c1 (centres unmarked) [GT-07547, N-(2-(1-((5-(2,6-dioxopiperidin-3-yl)-2-fluoropyridin-3-yl)methyl)piperidin-4-yl)-6-methoxy-2H-indazol-5-yl)-3-(trifluoromethyl)benzamide]
